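The compound was tested at five concentrations on cells cultured in 96-well plates, with a 48-hour exposure period. At the GI50, growth is halved.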 Active and inactive are the calls of the source. Cut-off read from the data, not from the text of the source: active = GI50 up to about 1.1 µM and inactive = higher.
Key:
Experiment in all cases: inhibition of tumour cell growth, NCI panel, 48 h
UO-31 = system: UO-31
NCI-H23 = system: NCI-H23
OVCAR-5 = system: OVCAR-5
MOLT-4 = system: MOLT-4
NCI-H226 = system: NCI-H226
SF-539 = system: SF-539
UACC-62 = system: UACC-62
SK-OV-3 = system: SK-OV-3
HCT-116 = system: HCT-116
Malme-3M = system: Malme-3M
HT-29 = system: HT-29
OVCAR-3 = system: OVCAR-3
SNB-75 = system: SNB-75
HOP-62 = system: HOP-62
SK-MEL-5 = system: SK-MEL-5
EKVX = system: EKVX
SK-MEL-28 = system: SK-MEL-28
TK-10 = system: TK-10
MDA-MB-435 = system: MDA-MB-435
KM12 = system: KM12

Measured: GI50

NS(=O)(=O)c1ccc(NC(=O)C2C(=O)C(=O)N(c3ccc(S(N)(=O)=O)cc3)C2=O)cc1 (configuration not stated)
inactive: UO-31 > 100 µM | NCI-H23 > 100 µM | OVCAR-5 > 100 µM | MOLT-4 > 100 µM | NCI-H226 > 100 µM | SF-539 > 100 µM | UACC-62 > 100 µM | SK-OV-3 > 100 µM | HCT-116 > 100 µM | Malme-3M > 100 µM | HT-29 > 100 µM | OVCAR-3 > 100 µM | SNB-75 > 100 µM | HOP-62 > 100 µM | SK-MEL-5 > 100 µM | EKVX > 100 µM | SK-MEL-28 > 100 µM | TK-10 > 100 µM

O=C1C[C@@]23CCC4(CC2CCC[C@H]3O1)OCCO4 (some centres not stated)
inactive: MDA-MB-435 > 100 µM | NCI-H23 > 100 µM | OVCAR-5 > 100 µM | MOLT-4 > 100 µM | NCI-H226 > 100 µM | SF-539 > 100 µM | UACC-62 > 100 µM | SK-OV-3 > 100 µM | HCT-116 > 100 µM | KM12 > 100 µM | Malme-3M > 100 µM | HT-29 > 100 µM | OVCAR-3 > 100 µM | HOP-62 > 100 µM | SK-MEL-5 > 100 µM | EKVX > 100 µM | SK-MEL-28 > 100 µM

O=C(Nc1ccccc1)N1CC(CN2CCN(c3ccccc3)CC2)OC1=O (configuration not stated)
inactive: UO-31 > 100 µM | MDA-MB-435 > 100 µM | NCI-H23 > 100 µM | OVCAR-5 > 100 µM | MOLT-4 > 100 µM | NCI-H226 > 100 µM | UACC-62 > 100 µM | SK-OV-3 > 100 µM | HCT-116 > 100 µM | KM12 > 100 µM | Malme-3M > 100 µM | HT-29 > 100 µM | HOP-62 > 100 µM | SK-MEL-5 > 100 µM | EKVX > 100 µM | SK-MEL-28 > 100 µM | TK-10 > 100 µM

COc1cc(C2C(Cl)C(=O)N2NC(=O)c2ccc(NC(C)=O)cc2)cc(Br)c1O (configuration not stated)
inactive: UO-31 > 100 µM | NCI-H23 > 100 µM | OVCAR-5 > 100 µM | MOLT-4 > 100 µM | NCI-H226 > 100 µM | SF-539 > 100 µM | UACC-62 > 100 µM | SK-OV-3 > 100 µM | HCT-116 > 100 µM | KM12 > 100 µM | Malme-3M > 100 µM | HT-29 > 100 µM | OVCAR-3 > 100 µM | SNB-75 > 100 µM | HOP-62 > 100 µM | SK-MEL-5 > 100 µM | SK-MEL-28 > 100 µM | TK-10 > 100 µM

COC(=O)C1=C(C(=O)OC)SC2(S1)C1=C(CCC1)SC(C(=O)OC)=C2C(=O)OC
inactive: UO-31 10.8 µM | MDA-MB-435 12.9 µM | NCI-H23 18.6 µM | OVCAR-5 19.4 µM | MOLT-4 2.29 µM | SF-539 1.48 µM | UACC-62 15 µM | SK-OV-3 16.9 µM | HCT-116 1.77 µM | KM12 15.1 µM | Malme-3M 17.9 µM | HT-29 4.58 µM | OVCAR-3 12.2 µM | HOP-62 12.7 µM | SK-MEL-5 14.9 µM | EKVX 14.9 µM | SK-MEL-28 10.7 µM | TK-10 14.9 µM

Cc1nc2c(n1-c1ccccc1)C(=O)c1ccccc1C2=O
inactive: UO-31 73.3 µM | NCI-H23 22.4 µM | OVCAR-5 > 100 µM | MOLT-4 30.3 µM | NCI-H226 58.1 µM | SF-539 41.7 µM | UACC-62 23.4 µM | SK-OV-3 > 100 µM | HCT-116 22.2 µM | KM12 50.2 µM | Malme-3M 11.3 µM | HT-29 32.7 µM | OVCAR-3 20.7 µM | SNB-75 > 100 µM | HOP-62 > 100 µM | SK-MEL-5 25.8 µM | EKVX > 100 µM | SK-MEL-28 96.2 µM | TK-10 > 100 µM

CC(=O)c1ccc(OCC(O)CO)cc1 (configuration not stated)
inactive: UO-31 > 100 µM | NCI-H23 > 100 µM | OVCAR-5 > 100 µM | MOLT-4 > 100 µM | NCI-H226 > 100 µM | SF-539 > 100 µM | UACC-62 > 100 µM | SK-OV-3 > 100 µM | HCT-116 17.3 µM | KM12 > 100 µM | Malme-3M > 100 µM | HT-29 61.4 µM | OVCAR-3 > 100 µM | SNB-75 > 100 µM | HOP-62 > 100 µM | SK-MEL-5 > 100 µM | EKVX > 100 µM | SK-MEL-28 > 100 µM | TK-10 > 100 µM

COc1ccc2c(c1)CC[C@@H]1[C@@H]2CC[C@]2(C)C(=O)/C(=C/c3ccc(O)c(OC)c3)C[C@@H]12
inactive: UO-31 71 µM | MDA-MB-435 32 µM | NCI-H23 77.1 µM | OVCAR-5 76 µM | MOLT-4 28.2 µM | NCI-H226 44.2 µM | UACC-62 68.5 µM | SK-OV-3 > 100 µM | HT-29 51.8 µM | OVCAR-3 > 100 µM | HOP-62 62.7 µM | SK-MEL-5 33.9 µM | EKVX 45.8 µM | SK-MEL-28 52.1 µM | TK-10 43.1 µM

CC1=C(C(=O)NCc2ccccc2)C(c2ccc(N(C)C)cc2)C(C(=O)NCc2ccccc2)=C(C)N1
inactive: UO-31 > 100 µM | NCI-H23 > 100 µM | OVCAR-5 > 100 µM | MOLT-4 > 100 µM | NCI-H226 > 100 µM | SF-539 > 100 µM | UACC-62 > 100 µM | SK-OV-3 > 100 µM | HCT-116 > 100 µM | KM12 > 100 µM | Malme-3M > 100 µM | HT-29 > 100 µM | OVCAR-3 > 100 µM | SNB-75 29.3 µM | HOP-62 > 100 µM | SK-MEL-5 > 100 µM | EKVX > 100 µM | SK-MEL-28 > 100 µM | TK-10 > 100 µM

O=C(CC1(O)C(=O)Nc2ccccc21)c1ccc2ccccc2c1 (configuration not stated)
inactive: UO-31 44.7 µM | NCI-H23 > 100 µM | OVCAR-5 > 100 µM | MOLT-4 > 100 µM | NCI-H226 29.2 µM | SF-539 > 100 µM | UACC-62 > 100 µM | SK-OV-3 > 100 µM | HCT-116 > 100 µM | Malme-3M > 100 µM | HT-29 > 100 µM | OVCAR-3 > 100 µM | SNB-75 78 µM | HOP-62 > 100 µM | SK-MEL-5 > 100 µM | EKVX > 100 µM | SK-MEL-28 > 100 µM | TK-10 > 100 µM

CC(=O)Nc1ccc(/C=C(\NC(=O)c2ccccc2)C(=O)NNS(=O)(=O)c2ccc(C)cc2)cc1
inactive: UO-31 > 100 µM | NCI-H23 > 100 µM | OVCAR-5 > 100 µM | MOLT-4 > 100 µM | NCI-H226 > 100 µM | SF-539 > 100 µM | UACC-62 > 100 µM | SK-OV-3 > 100 µM | HCT-116 > 100 µM | KM12 > 100 µM | Malme-3M > 100 µM | HT-29 > 100 µM | OVCAR-3 > 100 µM | SNB-75 > 100 µM | HOP-62 > 100 µM | SK-MEL-5 > 100 µM | EKVX > 100 µM | SK-MEL-28 > 100 µM | TK-10 > 100 µM

Reference: ChEMBL document CHEMBL1201862, “PubChem BioAssay data set” (2004)
